Reference: the NIST ThermoML archive (doi:10.1016/j.jct.2014.07.018)
Numbers after ± are expanded uncertainties.

How the values were obtained:
[1] = for molar entropy: 101.33 kPa, Vacuum adiabatic calorimetry; for Triple point temperature / Glass transition temperature: Adiabatic calorimetry
[2] = Molar enthalpy of transition or fusion; settings: Adiabatic calorimetry

CCCCn1cc[n+](C)c1.[I-] [1-butyl-3-methylimidazolium iodide]
molar entropy ([1]; 0 K, Glass): 15.2 ± 3.2 J/K/mol | molar entropy ([1]; 5 K, Crystal): 0.279 ± 0.018 J/K/mol | molar entropy ([1]; 5 K, Glass): 15.7 ± 3.2 J/K/mol | molar entropy ([1]; 10 K, Crystal): 2.27 ± 0.07 J/K/mol | molar entropy ([1]; 10 K, Glass): 18.7 ± 3.2 J/K/mol | molar entropy ([1]; 15 K, Crystal): 6.48 ± 0.15 J/K/mol | molar entropy ([1]; 15 K, Glass): 24 ± 3.2 J/K/mol | molar entropy ([1]; 20 K, Crystal): 12.19 ± 0.21 J/K/mol | molar entropy ([1]; 20 K, Glass): 30.7 ± 3 J/K/mol | molar entropy ([1]; 25 K, Crystal): 18.74 ± 0.25 J/K/mol | molar entropy ([1]; 25 K, Glass): 38.1 ± 3 J/K/mol | molar entropy ([1]; 30 K, Crystal): 25.76 ± 0.29 J/K/mol | molar entropy ([1]; 30 K, Glass): 46 ± 3 J/K/mol | molar entropy ([1]; 35 K, Crystal): 32.98 ± 0.34 J/K/mol | molar entropy ([1]; 35 K, Glass): 54.1 ± 3 J/K/mol | molar entropy ([1]; 40 K, Crystal): 40.24 ± 0.38 J/K/mol | molar entropy ([1]; 40 K, Glass): 62.1 ± 3 J/K/mol | molar entropy ([1]; 45 K, Crystal): 47.47 ± 0.43 J/K/mol | molar entropy ([1]; 45 K, Glass): 70.1 ± 2.9 J/K/mol | molar entropy ([1]; 50 K, Crystal): 54.62 ± 0.48 J/K/mol | molar entropy ([1]; 50 K, Glass): 77.9 ± 2.9 J/K/mol | molar entropy ([1]; 60 K, Crystal): 68.59 ± 0.56 J/K/mol | molar entropy ([1]; 60 K, Glass): 93.1 ± 2.9 J/K/mol | molar entropy ([1]; 70 K, Crystal): 82.02 ± 0.65 J/K/mol | molar entropy ([1]; 70 K, Glass): 107.7 ± 2.7 J/K/mol | molar entropy ([1]; 80 K, Crystal): 94.91 ± 0.73 J/K/mol | molar entropy ([1]; 80 K, Glass): 121.6 ± 2.7 J/K/mol | molar entropy ([1]; 90 K, Crystal): 107.3 ± 0.8 J/K/mol | molar entropy ([1]; 90 K, Glass): 135 ± 2.7 J/K/mol | molar entropy ([1]; 100 K, Crystal): 119.2 ± 1 J/K/mol | molar entropy ([1]; 100 K, Glass): 147.9 ± 2.7 J/K/mol | molar entropy ([1]; 110 K, Crystal): 130.6 ± 1 J/K/mol | molar entropy ([1]; 110 K, Glass): 160.2 ± 2.6 J/K/mol | molar entropy ([1]; 120 K, Crystal): 141.7 ± 1 J/K/mol | molar entropy ([1]; 120 K, Glass): 172 ± 2.6 J/K/mol | molar entropy ([1]; 130 K, Crystal): 152.3 ± 1.1 J/K/mol | molar entropy ([1]; 130 K, Glass): 183.5 ± 2.6 J/K/mol | molar entropy ([1]; 140 K, Crystal): 162.6 ± 1.1 J/K/mol | molar entropy ([1]; 140 K, Glass): 194.6 ± 2.6 J/K/mol | molar entropy ([1]; 150 K, Crystal): 172.6 ± 1.3 J/K/mol | molar entropy ([1]; 150 K, Glass): 205.3 ± 2.6 J/K/mol | molar entropy ([1]; 160 K, Crystal): 182.3 ± 1.3 J/K/mol | molar entropy ([1]; 160 K, Glass): 215.8 ± 2.4 J/K/mol | molar entropy ([1]; 170 K, Crystal): 191.8 ± 1.3 J/K/mol | molar entropy ([1]; 170 K, Glass): 226.1 ± 2.4 J/K/mol | molar entropy ([1]; 180 K, Crystal): 201.1 ± 1.4 J/K/mol | molar entropy ([1]; 180 K, Glass): 236.1 ± 2.4 J/K/mol | molar entropy ([1]; 190 K, Crystal): 210.2 ± 1.4 J/K/mol | molar entropy ([1]; 190 K, Glass): 246 ± 2.4 J/K/mol | molar entropy ([1]; 200 K, Crystal): 219.2 ± 1.6 J/K/mol | molar entropy ([1]; 200 K, Glass): 255.8 ± 2.4 J/K/mol | molar entropy ([1]; 210 K, Crystal): 228.1 ± 1.6 J/K/mol | molar entropy ([1]; 210 K, Liquid): 266.8 ± 2.5 J/K/mol | molar entropy ([1]; 220 K, Crystal): 236.8 ± 1.6 J/K/mol | molar entropy ([1]; 220 K, Liquid): 280.1 ± 2.5 J/K/mol | molar entropy ([1]; 230 K, Crystal): 245.5 ± 1.7 J/K/mol | molar entropy ([1]; 230 K, Liquid): 292.9 ± 2.5 J/K/mol | molar entropy ([1]; 240 K, Crystal): 254.1 ± 1.7 J/K/mol | molar entropy ([1]; 240 K, Liquid): 305.3 ± 2.5 J/K/mol | molar entropy ([1]; 250 K, Crystal): 262.7 ± 1.7 J/K/mol | molar entropy ([1]; 250 K, Liquid): 317.3 ± 2.3 J/K/mol | molar entropy ([1]; 260 K, Crystal): 271.2 ± 1.9 J/K/mol | molar entropy ([1]; 260 K, Liquid): 328.9 ± 2.3 J/K/mol | molar entropy ([1]; 270 K, Crystal): 279.8 ± 1.9 J/K/mol | molar entropy ([1]; 270 K, Liquid): 340.1 ± 2.3 J/K/mol | molar entropy ([1]; 280 K, Crystal): 288.5 ± 1.9 J/K/mol | molar entropy ([1]; 280 K, Liquid): 351.1 ± 2.3 J/K/mol | molar entropy ([1]; 290 K, Crystal): 297.2 ± 2 J/K/mol | molar entropy ([1]; 290 K, Liquid): 361.9 ± 2.3 J/K/mol | molar entropy ([1]; 291.92 K, Crystal): 298.8 ± 2 J/K/mol | molar entropy ([1]; 291.92 K, Liquid): 363.9 ± 2.3 J/K/mol | molar entropy ([1]; 298.15 K, Liquid): 370.4 ± 2.5 J/K/mol | molar entropy ([1]; 300 K, Liquid): 372.3 ± 2.5 J/K/mol | molar entropy ([1]; 310 K, Liquid): 382.6 ± 2.5 J/K/mol | molar entropy ([1]; 320 K, Liquid): 392.6 ± 2.6 J/K/mol | molar entropy ([1]; 330 K, Liquid): 402.4 ± 2.6 J/K/mol | molar entropy ([1]; 340 K, Liquid): 412.1 ± 2.6 J/K/mol | molar entropy ([1]; 350 K, Liquid): 421.5 ± 2.8 J/K/mol | molar entropy ([1]; 360 K, Liquid): 430.9 ± 2.8 J/K/mol | molar entropy ([1]; 370 K, Liquid): 440 ± 2.8 J/K/mol | Triple point temperature ([1]; Crystal): 291.92 ± 0.04 K | Glass transition temperature ([1]; Glass): -66 ± 1 °C | Molar enthalpy of transition or fusion ([2]; Crystal): 4.539 ± 0.0191 kcal/mol

CCC[n+]1ccn(C)c1.[Br-] [1-methyl-3-propylimidazolium bromide]
molar entropy ([1]; 0 K, Glass): 15.3 ± 2.9 J/K/mol | molar entropy ([1]; 5 K, Crystal 2): 0.097 ± 0.013 J/K/mol | molar entropy ([1]; 5 K, Glass): 15.6 ± 2.9 J/K/mol | molar entropy ([1]; 10 K, Crystal 2): 0.884 ± 0.031 J/K/mol | molar entropy ([1]; 10 K, Glass): 17.7 ± 2.9 J/K/mol | molar entropy ([1]; 15 K, Crystal 2): 3.03 ± 0.07 J/K/mol | molar entropy ([1]; 15 K, Glass): 21.6 ± 2.9 J/K/mol | molar entropy ([1]; 20 K, Crystal 2): 6.53 ± 0.1 J/K/mol | molar entropy ([1]; 20 K, Glass): 26.8 ± 2.9 J/K/mol | molar entropy ([1]; 25 K, Crystal 2): 11.08 ± 0.14 J/K/mol | molar entropy ([1]; 25 K, Glass): 32.9 ± 2.7 J/K/mol | molar entropy ([1]; 30 K, Crystal 2): 16.39 ± 0.17 J/K/mol | molar entropy ([1]; 30 K, Glass): 39.5 ± 2.7 J/K/mol | molar entropy ([1]; 35 K, Crystal 2): 22.19 ± 0.22 J/K/mol | molar entropy ([1]; 35 K, Glass): 46.3 ± 2.7 J/K/mol | molar entropy ([1]; 40 K, Crystal 2): 28.28 ± 0.25 J/K/mol | molar entropy ([1]; 40 K, Glass): 53.3 ± 2.7 J/K/mol | molar entropy ([1]; 45 K, Crystal 2): 34.52 ± 0.29 J/K/mol | molar entropy ([1]; 45 K, Glass): 60.2 ± 2.7 J/K/mol | molar entropy ([1]; 50 K, Crystal 2): 40.8 ± 0.33 J/K/mol | molar entropy ([1]; 50 K, Glass): 67.1 ± 2.7 J/K/mol | molar entropy ([1]; 60 K, Crystal 2): 53.3 ± 0.41 J/K/mol | molar entropy ([1]; 60 K, Glass): 80.6 ± 2.6 J/K/mol | molar entropy ([1]; 70 K, Crystal 2): 65.48 ± 0.49 J/K/mol | molar entropy ([1]; 70 K, Glass): 93.6 ± 2.6 J/K/mol | molar entropy ([1]; 80 K, Crystal 2): 77.24 ± 0.56 J/K/mol | molar entropy ([1]; 80 K, Glass): 106.1 ± 2.6 J/K/mol | molar entropy ([1]; 90 K, Crystal 2): 88.54 ± 0.66 J/K/mol | molar entropy ([1]; 90 K, Glass): 118.1 ± 2.4 J/K/mol | molar entropy ([1]; 100 K, Crystal 2): 99.4 ± 0.73 J/K/mol | molar entropy ([1]; 100 K, Glass): 129.6 ± 2.4 J/K/mol | molar entropy ([1]; 110 K, Crystal 2): 109.8 ± 0.8 J/K/mol | molar entropy ([1]; 110 K, Glass): 140.6 ± 2.4 J/K/mol | molar entropy ([1]; 120 K, Crystal 2): 119.9 ± 0.8 J/K/mol | molar entropy ([1]; 120 K, Glass): 151.2 ± 2.4 J/K/mol | molar entropy ([1]; 130 K, Crystal 2): 129.6 ± 1 J/K/mol | molar entropy ([1]; 130 K, Glass): 161.4 ± 2.4 J/K/mol | molar entropy ([1]; 140 K, Crystal 2): 139 ± 1 J/K/mol | molar entropy ([1]; 140 K, Glass): 171.3 ± 2.3 J/K/mol | molar entropy ([1]; 150 K, Crystal 2): 148 ± 1 J/K/mol | molar entropy ([1]; 150 K, Glass): 180.8 ± 2.3 J/K/mol | molar entropy ([1]; 160 K, Crystal 2): 156.9 ± 1.1 J/K/mol | molar entropy ([1]; 160 K, Glass): 190.2 ± 2.3 J/K/mol | molar entropy ([1]; 170 K, Crystal 2): 165.5 ± 1.1 J/K/mol | molar entropy ([1]; 170 K, Glass): 199.3 ± 2.3 J/K/mol | molar entropy ([1]; 180 K, Crystal 2): 173.9 ± 1.1 J/K/mol | molar entropy ([1]; 180 K, Glass): 208.2 ± 2.3 J/K/mol | molar entropy ([1]; 190 K, Crystal 2): 182.2 ± 1.3 J/K/mol | molar entropy ([1]; 190 K, Glass): 217 ± 2.3 J/K/mol | molar entropy ([1]; 200 K, Crystal 2): 190.2 ± 1.3 J/K/mol | molar entropy ([1]; 200 K, Glass): 225.6 ± 2.3 J/K/mol | molar entropy ([1]; 210 K, Crystal 2): 198.2 ± 1.3 J/K/mol | molar entropy ([1]; 210 K, Glass): 234.3 ± 2.2 J/K/mol | molar entropy ([1]; 220 K, Crystal 2): 206.1 ± 1.4 J/K/mol | molar entropy ([1]; 220 K, Liquid): 244.9 ± 2.2 J/K/mol | molar entropy ([1]; 230 K, Crystal 2): 213.8 ± 1.4 J/K/mol | molar entropy ([1]; 230 K, Liquid): 256.5 ± 2.2 J/K/mol | molar entropy ([1]; 240 K, Crystal 2): 221.5 ± 1.4 J/K/mol | molar entropy ([1]; 240 K, Liquid): 267.7 ± 2.2 J/K/mol | molar entropy ([1]; 250 K, Crystal 2): 229.2 ± 1.6 J/K/mol | molar entropy ([1]; 250 K, Liquid): 278.5 ± 2.2 J/K/mol | molar entropy ([1]; 260 K, Crystal 2): 236.8 ± 1.6 J/K/mol | molar entropy ([1]; 260 K, Liquid): 289 ± 2.2 J/K/mol | molar entropy ([1]; 270 K, Crystal 2): 244.4 ± 1.6 J/K/mol | molar entropy ([1]; 270 K, Liquid): 299.2 ± 2.2 J/K/mol | molar entropy ([1]; 280 K, Crystal 2): 252.1 ± 1.6 J/K/mol | molar entropy ([1]; 280 K, Liquid): 309.1 ± 2.2 J/K/mol | molar entropy ([1]; 290 K, Crystal 2): 259.9 ± 1.7 J/K/mol | molar entropy ([1]; 290 K, Liquid): 318.8 ± 2.2 J/K/mol | molar entropy ([1]; 298.15 K, Crystal 2): 266.3 ± 1.7 J/K/mol | molar entropy ([1]; 298.15 K, Liquid): 326.6 ± 2.2 J/K/mol | molar entropy ([1]; 300 K, Liquid): 328.3 ± 2.2 J/K/mol | molar entropy ([1]; 309.54 K, Crystal 2): 275.4 ± 1.7 J/K/mol | molar entropy ([1]; 309.54 K, Liquid): 337.2 ± 2.2 J/K/mol | molar entropy ([1]; 310 K, Liquid): 337.6 ± 2.2 J/K/mol | molar entropy ([1]; 320 K, Liquid): 346.7 ± 2.2 J/K/mol | molar entropy ([1]; 330 K, Liquid): 355.6 ± 2.3 J/K/mol | molar entropy ([1]; 340 K, Liquid): 364.4 ± 2.3 J/K/mol | molar entropy ([1]; 350 K, Liquid): 373 ± 2.3 J/K/mol | molar entropy ([1]; 360 K, Liquid): 381.5 ± 2.5 J/K/mol | molar entropy ([1]; 370 K, Liquid): 389.8 ± 2.5 J/K/mol | Triple point temperature ([1]; Crystal 2): 309.54 ± 0.05 K | Glass transition temperature ([1]; Glass): -60 ± 1 °C | Molar enthalpy of transition or fusion ([2]; Crystal 2): 4.567 ± 0.0335 kcal/mol
